According to patent publication US20120156242A1 (priority 2009, published 2012):

Assays:
[1] = in vivo; for eliciting of antibody (antibody titer of rabbit immune serum against the peptide): sc
monoclonal antibody D-1 = assay: Inhibition by synthetic peptides of the neutralization activity of D-1; assay type: cell-based, human; conditions: D-1 and influenza A virus incubated with synthetic peptide

Row | Sequence | eliciting of antibody (antibody titer of rabbit immune serum against the peptide) [1] | antigenicity ([1]; rabbit) | neutralization inhibition rate (monoclonal antibody D-1)
1 | TMPNNEKFDKLYIWGVHHPGT [peptide 1] | could elicit the antibody in rabbit | high antigenicity compared with the lower region peptide | about 50%
2 | NIPSRISIYWTIVKPGD [peptide 2] | could elicit the antibody in rabbit |  | about 20%
